Test results taken from ChEMBL document CHEMBL4364338, “Probing the side chain tolerance for inhibitors of the CD95/PLCγ1 interaction” (Bioorg Med Chem Lett, 2019).
pIC50: −log10 of the molar value. Activity calls are given as the source filed them. The rule behind the calls is not given here.

How the values were obtained:
[1] = Inhibition of CD95 (unknown origin)/PLCgamma-1 SH3 domain (unknown origin) protein-protein interaction transfected in HEK293T cells incubated for 1 hr by renilla luciferase based protein-fragment complementation assay; format: cell-based, Homo sapiens
[2] = Inhibition of CD95 (unknown origin)/FADD (unknown origin) protein-protein interaction transfected in HEK293T cells incubated for 1 hr by renilla luciferase based protein-fragment complementation assay; format: cell-based, Homo sapiens
[3] = species: Homo sapiens; assay: Selectivity index, ratio of IC50 for CD95 (unknown origin)/FADD (unknown origin) protein-protein interaction transfected in HEK293T cells to IC50 for CD95 (unknown origin)/PLCgamma-1 SH3 domain (unknown origin) protein-protein interaction transfected in HEK293T cells; format: cell-based
[4] = species: Homo sapiens; assay: Inhibition of CD95 (unknown origin)/PLCgamma-1 SH3 domain Q805A mutant (unknown origin) protein-protein interaction transfected in HEK293T cells incubated for 1 hr by renilla luciferase based protein-fragment complementation assay; format: cell-based
[5] = species: Homo sapiens; assay: Inhibition of CD95 (unknown origin)/PLCgamma-1 SH3 domain D808A mutant (unknown origin) protein-protein interaction transfected in HEK293T cells incubated for 1 hr by renilla luciferase based protein-fragment complementation assay; format: cell-based

Compound	pIC50 [1]	pIC50 [2]	Ratio IC50 [3]	inhibition [4]	inhibition [5]
N=C(N)NCCC[C@@H](C(=O)NCCN(C(=O)CCCCCN)[C@@H](Cc1c[nH]cn1)C(=O)NCCN(C(=O)CCc1c[nH]c2ccccc12)[C@@H](CCCCN)C(N)=O)N(CCN)C(=O)CCS	3.46	2.58	8	–	–
N=C(N)NCCCCC(=O)N(CCNC(=O)[C@H](Cc1c[nH]cn1)N(CCNC(=O)[C@H](Cc1cccnc1)N(CCN)C(=O)CCS)C(=O)CCCCCN)[C@@H](CCCCN)C(N)=O	3.04	2.37	4	–	–
C[C@@H](O)[C@H](N)C(=O)NCCN(C(=O)CCS)[C@@H](CCCNC(=N)N)C(=O)NCCN(C(=O)CCCCCN)[C@@H](Cc1c[nH]cn1)C(=O)NCCN(C(=O)CCCCNC(=N)N)[C@@H](CCCCN)C(N)=O	4.11	< 2.30	> 100	inactive	inactive
N=C(N)NCCC[C@@H](C(=O)NCCN(C(=O)CCCCCN)[C@@H](Cc1c[nH]cn1)C(=O)NCCN(C(=O)CCc1ccc(N)cc1)[C@@H](CCCCN)C(N)=O)N(CCN)C(=O)CCS	3.07	< 2.30	> 10	–	–
CCC(=O)N(CCN)[C@@H](CCCNC(=N)N)C(=O)NCCN(C(=O)CCCCCN)[C@@H](Cc1c[nH]cn1)C(=O)NCCN(C(=O)CCCCNC(=N)N)[C@@H](CCCCN)C(N)=O	4.21	< 2.30	> 100	–	–
N=C(N)NCCC[C@@H](C(=O)NCCN(C(=O)CCCCCN)[C@@H](Cc1c[nH]cn1)C(=O)NCCN(C(=O)CCCCCC(N)=O)[C@@H](CCCCN)C(N)=O)N(CCN)C(=O)CCS	< 2.30	< 2.30	–	–	–

Second part, led by results:

pIC50 [1]	pIC50 [2]	Compound	Ratio IC50 [3]	inhibition [4]	inhibition [5]
3.18	< 2.30	N=C(N)NCCC[C@@H](C(=O)NCCN(C(=O)CCCCCN)[C@@H](Cc1c[nH]cn1)C(=O)NCCN(C(=O)CCc1ccc(O)cc1)[C@@H](CCCCN)C(N)=O)N(CCN)C(=O)CCS	> 10	–	–
4.46	< 2.30	H-TCRKHRK-OH	> 100	–	–
4.07	3.76	N=C(N)NCCCCC(=O)N(CCNC(=O)[C@H](Cc1c[nH]cn1)N(CCNC(=O)[C@H](Cc1c[nH]c2ccccc12)N(CCN)C(=O)CCS)C(=O)CCCCCN)[C@@H](CCCCN)C(N)=O	2	–	–
4.10	2.41	N=C(N)NCCCCC(=O)N(CCNC(=O)[C@H](Cc1c[nH]cn1)N(CCNC(=O)[C@H](CCCNC(=N)N)N(CCN)C(=O)CCO)C(=O)CCCCCN)[C@@H](CCCCN)C(N)=O	50	–	–
4.12	2.42	N=C(N)NCCCCC(=O)N(CCNC(=O)[C@H](Cc1c[nH]cn1)N(CCNC(=O)[C@H](CCCNC(=N)N)N(CCN)C(=O)CCS)C(=O)CCCCCN)[C@@H](CCCCN)C(N)=O	50	–	–
